Results reported in PMC4454739 (Clinical cancer research : an official journal of the …, 2014).
Where two headings read alike, the source gives them in different places.

How the values were obtained:
[1] = type: in vivo, human; conditions: for change of exposure (AUC) with dose: temsirolimus 8, 10 and 15 mg/m^2; for AUC(0-inf) / AUC(0-t) / Cmax / Tmax / Vd / half-life / clearance: human, intravenous; for AUC(0-inf) / AUC(0-t) / Cmax / Tmax / Vd / half-life: plasma; for clearance: whole blood
[2] = Phase I toxicity, DLT and MTD determination; type: in vivo, human; conditions: for recommended pediatric phase II dose: IV once every 7 days
[3] = cited from earlier work
[4] = adults, metastatic prostate cancer; with cixutumumab 6 mg/kg IV; cited from earlier work
[5] = in vivo; cited from earlier work
[6] = Cixutumumab; conditions: for AUC0–7d / CL / CL (weight-adjusted) / Cmax / Vdss / Vdss (weight-adjusted): median
[7] = in vivo, 6 mg/kg; cited from earlier work
[8] = all patients, combination with temsirolimus
[9] = cycle 1, IMC-A12 6 mg/kg + temsirolimus 8 mg/m^2 (n=8)
[10] = cycle 1, IMC-A12 6 mg/kg + temsirolimus 10 mg/m^2 (n = 3)
[11] = cycle 1, IMC-A12 6 mg/kg + temsirolimus 15 mg/m^2 (n = 4)

CO[C@H]1C[C@@H]2CC[C@@H](C)[C@@](O)(O2)C(=O)C(=O)N2CCCC[C@H]2C(=O)O[C@H]([C@H](C)C[C@@H]2CC[C@@H](O)[C@H](OC)C2)CC(=O)[C@H](C)/C=C(\C)[C@@H](O)[C@@H](OC)C(=O)[C@H](C)C[C@H](C)/C=C/C=C/C=C/1C [Sirolimus]
change of exposure (AUC) with dose [1]: did not appreciably increase with dose
change of exposure (AUC) with dose ([1]; listed as sirolimus): did not increase significantly with dose

CO[C@H]1C[C@@H]2CC[C@@H](C)[C@@](O)(O2)C(=O)C(=O)N2CCCC[C@H]2C(=O)O[C@H]([C@H](C)C[C@@H]2CC[C@@H](OC(=O)C(C)(CO)CO)[C@H](OC)C2)CC(=O)[C@H](C)/C=C(\C)[C@@H](O)[C@@H](OC)C(=O)[C@H](C)C[C@H](C)/C=C/C=C/C=C/1C [Temsirolimus]
MTD ([2]; temsirolimus combined with cixutumumab 6 mg/kg, children): 8 mg/m^2
recommended pediatric phase II dose ([2]; temsirolimus in combination with cixutumumab): 8 mg/m^2
clearance from whole blood, mean ([3]; after a 25-mg dose): 20 L/h
steady-state volume of distribution (Vss) ([3]; after a 25-mg dose): 230 L
clearance from whole blood, mean ([3]; after a 250-mg dose): 100 L/h
steady-state volume of distribution (Vss) ([3]; after a 250-mg dose): 900 L
MTD of temsirolimus in the combination, flat dose [4]: 20 mg
MTD of temsirolimus in the combination, per body surface [4]: 11 mg/m^2
AUC(0-inf) ([1]; 8 mg/m2): 2950 ng·h/mL
AUC(0-t) ([1]; 8 mg/m2): 2020 ng·h/mL
Cmax ([1]; 8 mg/m2): 509 ng/mL
Tmax ([1]; 8 mg/m2): 0.8 h
Vd ([1]; 8 mg/m2): 46.3 L
half-life ([1]; 8 mg/m2): 10.3 h
AUC(0-inf) ([1]; 10 mg/m2): 3650 ng·h/mL
AUC(0-t) ([1]; 10 mg/m2): 2650 ng·h/mL
Cmax ([1]; 10 mg/m2): 606 ng/mL
Tmax ([1]; 10 mg/m2): 0.7 h
Vd ([1]; 10 mg/m2): 50.4 L
half-life ([1]; 10 mg/m2): 10.5 h
AUC(0-inf) ([1]; 15 mg/m2): 3270 ng·h/mL
AUC(0-t) ([1]; 15 mg/m2): 2780 ng·h/mL
Cmax ([1]; 15 mg/m2): 660 ng/mL
Tmax ([1]; 15 mg/m2): 0.6 h
Vd ([1]; 15 mg/m2): 74.9 L
half-life ([1]; 15 mg/m2): 10.3 h
clearance ([1]; 8 mg/m2): 38.3 mL/min
clearance ([1]; 10 mg/m2): 91.7 mL/min
clearance ([1]; 15 mg/m2): 112 mL/min
change of exposure (AUC) with dose [1]: did not increase significantly with dose

Cixutumumab: fully recombinant IgG1 monoclonal antibody that specifically targets the human IGF-IR1
recommended pediatric phase II dose ([2]; cixutumumab in combination with temsirolimus): 6 mg/kg
recommended phase II dose, single agent [5]: 9 mg/kg
median half-life [6, 8]: 122 h
median weight-adjusted clearance [6, 8]: 4.08 mL/day/kg
half-life ([6]; at 6 mg/kg, children): 122 h
steady-state trough concentration ([6]; at 6 mg/kg, children): 197 mg/mL
median serum trough concentration (Ctrough) ([6]; day 28 following a 6 mg/kg dose): approximately 200 μg/ml
AUC0–7d [6, 9]: 20.6 ng·h/mL
CL [6, 9]: 8.3 mL/h
CL (weight-adjusted) [6, 9]: 4.56 mL/day/kg
Cmax [6, 9]: 281000 ng/mL
Vdss [6, 9]: 1050 mL
Vdss (weight-adjusted) [6, 9]: 0.0258 L/kg
AUC0–7d [6, 10]: 25.6 ng·h/mL
CL [6, 10]: 9.9 mL/h
CL (weight-adjusted) [6, 10]: 4.08 mL/day/kg
Cmax [6, 10]: 277000 ng/mL
Vdss [6, 10]: 1750 mL
Vdss (weight-adjusted) [6, 10]: 0.0227 L/kg
AUC0–7d [6, 11]: 26.4 ng·h/mL
CL [6, 11]: 7.0 mL/h
CL (weight-adjusted) [6, 11]: 3.12 mL/day/kg
Cmax [6, 11]: 230000 ng/mL
Vdss [6, 11]: 1860 mL
Vdss (weight-adjusted) [6, 11]: 0.0311 L/kg
change in cixutumumab clearance as the temsirolimus dose was increased ([6]; temsirolimus 8 to 15 mg/m^2): no changes
half-life [7]: 209 h
steady-state trough concentration [7]: 145 mg/mL
